Patent US11472803B2, “7-substituted 1-aryl-naphthyridine-3-carboxylic acid amides and use thereof” (Bayer Aktiengesellschaft, priority 2016, dated 2022)
pEC50: −log10 of the molar value.

Target: T1, human M2 receptor (Homo sapiens, UniProt P08172)
T1 construct: expressed in transfected cells; host or cells: CHO-DUKX (CHO-DUKX-M2-GIRK)
T1 sequence (P08172 1-466): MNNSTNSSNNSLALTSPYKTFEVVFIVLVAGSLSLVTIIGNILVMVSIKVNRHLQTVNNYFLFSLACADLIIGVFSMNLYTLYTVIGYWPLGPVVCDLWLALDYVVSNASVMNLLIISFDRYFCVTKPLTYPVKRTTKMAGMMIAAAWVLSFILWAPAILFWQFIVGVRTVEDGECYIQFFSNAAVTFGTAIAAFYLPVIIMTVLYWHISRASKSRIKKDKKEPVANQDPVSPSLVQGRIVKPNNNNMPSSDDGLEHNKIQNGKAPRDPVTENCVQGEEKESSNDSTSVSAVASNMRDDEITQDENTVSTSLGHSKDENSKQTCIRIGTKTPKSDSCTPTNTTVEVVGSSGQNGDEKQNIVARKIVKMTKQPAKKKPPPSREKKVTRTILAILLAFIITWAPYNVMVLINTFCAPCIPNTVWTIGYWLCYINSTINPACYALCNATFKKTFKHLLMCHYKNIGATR
Experiment: Functional M2-GIRK1/4 activation test: allosteric potency (EC50) and efficiency at EC20 acetylcholine
Assay type: cell-based
Conditions: CHO-DUKX-M2-GIRK cells; for pEC50: voltage-sensitive dye, acetylcholine at EC20, in some cases mean of two or more determinations; for Emax: boosting of the acetylcholine effect at EC20 acetylcholine concentration
Source text: The binding of orthosteric agonists (endogenous ligand: acetylcholine) to the M2 receptor leads to receptor activation or a change in conformation of the receptor in the manner of a shift in equilibrium in favour of the active receptor conformation.
The agonist-induced change in conformation of the M2 receptor results in a Gαi protein activation. […] Under physiological conditions, the result is then a selective efflux of potassium from the cell along the electrochemical gradient. […] The extent of hyperpolarization can therefore be regarded as a measure of the activation of the M2 receptor.
The test cell used is a recombinant CHO-DUKX cell line which has been stably transfected with cDNA coding for the human M2 receptor and with cDNA coding for both GIRK1/4 subunits (CHO-DUKX-M2-GIRK). The transmembrane potential, or the relative changes in the transmembrane potential as a function of substance addition or M2 activation, is determined by means of a voltage-sensitive dye (FLIPR Membrane Potential Assay Kit Blue, Molecular Devices #R8034) and the measurement of cell fluorescence using a proprietary fluorescence imaging instrument.
The sowing medium consisted of MEM alpha medium (supplemented with 5% PCS, 2% Glutamax, no genticin).
For the particular measurement, the medium was removed and the cells were laden with the volt-age-sensitive dye for at least 6 min at room temperature (30 μl of loading buffer per 384-well). This was followed, in a first measurement, by the determination of the fluorescence for the resting transmembrane potential for a period of 5 sec. Thereafter, 10 μl in each case of the test substances diluted in loading buffer were added, followed by a second measurement to determine the transmembrane potential for a period of 50 sec in 1 sec increments. Finally, the cells were admixed with 10 μl of agonist solution (acetylcholine dissolved in loading buffer). Acetylcholine was used at the concentration corresponding to the EC20, which had been determined in a preliminary test. The M2-mediated GIRK1/4 activation or hyperpolarization was then monitored in a third measurement over a period of 60 sec. The EC50 value (degree of allosteric potency of test compound) and the efficiency (measure of the boosting of the acetylcholine effect at an EC20 acetylcholine concentration) were determined with the aid of a 4-parameter logistic function (Hill function).

pEC50	Emax [%]	Compound
7.69	100	CC(NC(=O)c1cn(-c2ncc(F)cc2F)c2nc(N3C[C@@H](O)[C@H](O)C3)c(F)cc2c1=O)C(F)(F)C(F)(F)F (mixture of isomers) [Example 39, 1-(3,5-difluoropyridin-2-yl)-7-[(3R,4R)-3,4-dihydroxypyrrolidin-1-yl]-6-fluoro-4-oxo-N-[(2)-3,3,4,4,4-pentafluorobutan-2-yl]-1,4-dihydro-1,8-naphthyridine-3-carboxamide]
8.59	100	CCC(NC(=O)c1cn(-c2c(F)cc(F)cc2F)c2nc(N3C[C@@H](O)[C@H](O)C3)c(Br)cc2c1=O)C(F)(F)C(F)(F)F (mixture of isomers) [Example 157, 6-Bromo-7-[(3R,4R)-3,4-dihydroxypyrrolidin-1-yl]-4-oxo-N-[1,1,1,2,2-pentafluoropentan-3-yl]-1-(2,4,6-trifluorophenyl)-1,4-dihydro-1,8-naphthyridine-3-carboxamide]
–	96	CC(NC(=O)c1cn(-c2c(F)cc(F)cc2F)c2nc(N3C[C@@H](O)[C@H](O)C3)c(F)cc2c1=O)C(F)(F)C(F)(F)F (mixture of isomers) [Example 8, 7-[(3R,4R)-3,4-Dihydroxypyrrolidin-1-yl]-6-fluoro-4-oxo-N-[3,3,4,4,4-pentafluorobutan-2-yl]-1-(2,4,6-trifluorophenyl)-1,4-dihydro-1,8-naphthyridine-3-carboxamide]
8.50	100	CCC(NC(=O)c1cn(-c2c(F)cc(F)cc2F)c2nc(N3C[C@@H](O)[C@H](O)C3)c(F)cc2c1=O)C(C)C (mixture of isomers) [Example 28, 7-[(3R,4R)-3,4-Dihydroxypyrrolidin-1-yl]-6-fluoro-N-(2-methylpentan-3-yl)-4-oxo-1-(2,4,6-trifluorophenyl)-1,4-dihydro-1,8-naphthyridine-3-carboxamide]
–	100	CC(NC(=O)c1cn(-c2c(F)cc(F)cc2F)c2nc(N3C[C@@H](O)[C@@H](O)C3)c(F)cc2c1=O)C(F)(F)C(F)(F)F (mixture of isomers) [Example 92, 7-[(3R,4S)-3,4-Dihydroxypyrrolidin-1-yl]-6-fluoro-4-oxo-N-[3,3,4,4,4-pentafluorobutan-2-yl]-1-(2,4,6-trifluorophenyl)-1,4-dihydro-1,8-naphthyridine-3-carboxamide]
7.81	100	CCC(COC(F)(F)F)NC(=O)c1cn(-c2c(F)cc(F)cc2F)c2nc(N3C[C@@H](O)[C@@H](O)C3)c(F)cc2c1=O (mixture of isomers) [Example 95, 7-[(3R,4S)-3,4-Dihydroxypyrrolidin-1-yl]-6-fluoro-4-oxo-N-[1-(trifluoromethoxy)butan-2-yl]-1-(2,4,6-trifluorophenyl)-1,4-dihydro-1,8-naphthyridine-3-carboxamide]
7.89	97	CCC(NC(=O)c1cn(-c2c(F)cc(F)cc2F)c2nc(N3C[C@@H](O)[C@@H](O)C3)c(F)cc2c1=O)C(C)C (mixture of isomers) [Example 104, 7-[(3R,4S)-3,4-Dihydroxypyrrolidin-1-yl]-6-fluoro-N-[2-methylpentan-3-yl]-6-fluoro-4-oxo-1-(2,4,6-trifluorophenyl)-1,4-dihydro-1,8-naphthyridine-3-carboxamide]
8.11	100	CCC(COC(F)(F)F)NC(=O)c1cn(-c2c(F)cc(F)cc2F)c2nc(N3CC[C@H](O)C3)c(F)cc2c1=O (mixture of isomers) [Example 109, 6-Fluoro-7-[(3S)-3-hydroxypyrrolidin-1-yl]-4-oxo-N-[1-(trifluoromethoxy)butan-2-yl]-1-(2,4,6-trifluorophenyl)-1,4-dihydro-1,8-naphthyridine-3-carboxamide]
8.46	97	CCC(NC(=O)c1cn(-c2c(F)cc(F)cc2F)c2nc(N3CC[C@H](O)C3)c(F)cc2c1=O)C(C)C (mixture of isomers) [Example 116, 6-Fluoro-7-[(3S)-3-hydroxypyrrolidin-1-yl]-N-[2-methylpentan-3-yl]-4-oxo-1-(2,4,6-trifluoro-phenyl)-1,4-dihydro-1,8-naphthyridine-3-carboxamide]
8.51	100	CC(C)C(NC(=O)c1cn(-c2c(F)cc(F)cc2F)c2nc(N3C[C@@H](O)[C@@H](O)C3)c(F)cc2c1=O)C(F)(F)F (mixture of isomers) [Example 123, 7-[(3R,4S)-3,4-Dihydroxypyrrolidin-1-yl]-6-fluoro-4-oxo-N-[1,1,1-trifluoro-3-methylbutan-2-yl]-1-(2,4,6-trifluorophenyl)-1,4-dihydro-1,8-naphthyridine-3-carboxamide]
8.41	97	CC(C)C(NC(=O)c1cn(-c2c(F)cc(F)cc2F)c2nc(N3CC[C@H](O)C3)c(F)cc2c1=O)C(F)(F)F (mixture of isomers) [Example 126, 6-Fluoro-7-[(3S)-3-hydroxypyrrolidin-1-yl]-4-oxo-N-[1,1,1-trifluoro-3-methylbutan-2-yl]-1-(2,4,6-trifluorophenyl)-1,4-dihydro-1,8-naphthyridine-3-carboxamide]
7.89	92	CC(NC(=O)c1cn(-c2ncc(F)cc2F)c2nc(N3CC[C@H](O)C3)c(F)cc2c1=O)C(F)(F)C(F)(F)F (mixture of isomers) [Example 127, 1-(3,5-Difluoropyridin-2-yl)-6-fluoro-7-[(3S)-3-hydroxypyrrolidin-1-yl]-4-oxo-N-[3,3,4,4,4-pentafluorobutan-2-yl]-1,4-dihydro-1,8-naphthyridine-3-carboxamide]
8.34	100	O=C(NC(c1ccccc1Cl)C(F)(F)F)c1cn(-c2c(F)cc(F)cc2F)c2nc(N3C[C@@H](O)[C@H](O)C3)c(F)cc2c1=O (mixture of isomers) [Example 131, N-[1-(2-Chlorophenyl)-2,2,2-trifluoroethyl]-7-[(3R,4R)-3,4-dihydroxypyrrolidin-1-yl]-6-fluoro-4-oxo-1-(2,4,6-trifluorophenyl)-1,4-dihydro-1,8-naphthyridine-3-carboxamide]
5.74	55	O=C(NC(c1ccccc1Cl)C(F)(F)F)c1cn(-c2ccc(F)cc2F)c2ncc(Cl)cc2c1=O (racemic) [Example 134, 6-Chloro-N-[1-(2-chlorophenyl)-2,2,2-trifluoroethyl]-1-(2,4-difluorophenyl)-4-oxo-1,4-dihydro-1,8-naphthyridine-3-carboxamide]
5.58	75	CC(COC(F)(F)F)NC(=O)c1cn(-c2ccc(F)cc2F)c2ncc(Cl)cc2c1=O (racemic) [Example 135, 6-Chloro-1-(2,4-difluorophenyl)-4-oxo-N-[1-(trifluoromethoxy)propan-2-yl]-1,4-dihydro-1,8-naphthyridine-3-carboxamide]
7.92	100	CC(NC(=O)c1cn(-c2c(F)cc(F)cc2F)c2nc(N3CCOCC3)c(F)cc2c1=O)C(F)(F)C(F)(F)F (racemic) [Example 146, 6-Fluoro-7-(morpholin-4-yl)-4-oxo-N-[3,3,4,4,4-pentafluorobutan-2-yl]-1-(2,4,6-trifluoro-phenyl)-1,4-dihydro-1,8-naphthyridine-3-carboxamide]
7.73	96	CCC(NC(=O)c1cn(-c2c(F)cc(F)cc2F)c2nc(N3CCOCC3)c(F)cc2c1=O)C(F)(F)C(F)(F)F (racemic) [Example 148, 6-Fluoro-7-(morpholin-4-yl)-4-oxo-N-[1,1,1,2,2-pentafluoropentan-3-yl]-1-(2,4,6-trifluoro-phenyl)-1,4-dihydro-1,8-naphthyridine-3-carboxamide]
7.60	93	CC(C)(NC(=O)c1cn(-c2c(F)cc(F)cc2F)c2nc(N3CC4(COC4)C3)c(F)cc2c1=O)C(F)(F)C(F)(F)F (racemic) [Example 163, 6-Fluoro-7-(2-oxa-6-azaspiro[3.3]hept-6-yl)-4-oxo-N-(3,3,4,4,4-pentafluoro-2-methylbutan-2-yl)-1-(2,4,6-trifluorophenyl)-1,4-dihydro-1,8-naphthyridine-3-carboxamide]
